According to patent publication US20250059159A1, “PLPRO INHIBITORS” (SHANGHAI SYNERGY PHARMACEUTICAL SCIENCES CO., LTD., priority 2021, published 2025):

Tests used:
SARS-CoV-2 PLpro = SARS-CoV-2 PLpro (Severe acute respiratory syndrome coronavirus 2 (2019-nCoV) (SARS-CoV-2), UniProt P0DTD1); experiment: PLpro enzymatic inhibition assay (IC50 value determination); format: biochemical; conditions: 60 min preincubation for covalent inhibitors, 10 min for non-covalent, read-out: Inhibition of SARS-CoV-2 PLpro IC50 range
SARS-CoV2 (Omicron) = experiment: SARS-CoV2 antiviral cellular activity assay in A549:hACE2 cells; format: cell-based; conditions: Severe acute respiratory syndrome coronavirus 2, 48 h; read-out: Antiviral cellular EC50 range (Omicron)

Structure (SMILES) | IC50 (SARS-CoV-2 PLpro) [nM] | EC50 (SARS-CoV2 (Omicron)) [nM]
COC(=O)/C=C/CNC(=O)CNC(=O)CN(C1CCN([C@H](C)c2cccc3ccccc23)CC1)S(C)(=O)=O [Compound 20, methyl (R,E)-4-(2-(2-(N-(1-(1-(naphthalen-1-yl)ethyl)piperidin-4-yl)methylsulfonamido)acetamido)acetamido)but-2-enoate] | < 100 | < 100
C#CCNC(=O)CNC(=O)CN(C1CCN([C@H](C)c2cccc3ccccc23)CC1)S(=O)(=O)C(F)(F)F [Compound 80, (R)—N-(2-oxo-2-(prop-2-yn-1-ylamino)ethyl)-2-((1,1,1-trifluoro-N-(1-(1-(naphthalen-1-yl)ethyl)piperidin-4-yl)methyl)sulfonamido)acetamide] | < 100 | 100 to 1000
C#CCNC(=O)CNC(=O)CN(C1CCN([C@H](C)c2cccc3ccccc23)CC1)S(C)(=O)=O [Compound 21, (R)-2-(N-(1-(1-(naphthalen-1-yl)ethyl)piperidin-4-yl)methylsulfonamido)-N-(2-oxo-2-(prop-2-yn-1-ylamino)ethyl)acetamide] | < 100 | < 100
